Data from patent publication US20180207228A1, “PEPTIDE COMBINATIONS AND USES THEREOF FOR TREATING GRASS ALLERGY” (ALK-Abelló A/S, priority 2015, published 2018).
Where no end group is shown, it is not given here.

test system: grass pollen allergic donor derived TCL-03 lines; test: Extended cross-reactivity study, proliferation on TCL03 DK1+DK2 (Study XR2), scoring; type: cell-based, human; details: study XR2; homologue from Cyn d; score 0 to 7

Molecule | Cross-reactivity score, Cyn d
GDEQKLRSAGELELQFRRVK-OH [compound 206] | 0
KEDFLGSLVKEIPPRLLYAK-OH [peptide 222] | 1

same assay, conditions: study XR2; homologue from Dac g; score 0 to 7

Molecule | Cross-reactivity score, Dac g
GDEQKLRSAGELELQFRRVK-OH [compound 206] | 2

same assay, conditions: study XR2; homologue from Fes p; score 0 to 7

Molecule | Cross-reactivity score, Fes p
GDEQKLRSAGELELQFRRVK-OH [compound 206] | 2

same assay, conditions: study XR2; homologue from Lol p; score 0 to 7

Molecule | Cross-reactivity score, Lol p
GDEQKLRSAGELELQFRRVK-OH [compound 206] | 2

same assay, conditions: study XR2; homologue from Pas n; score 0 to 7

Molecule | Cross-reactivity score, Pas n
GDEQKLRSAGELELQFRRVK-OH [compound 206] | 0

same assay, conditions: study XR2; homologue from Pha a; score 0 to 7

Molecule | Cross-reactivity score, Pha a
GDEQKLRSAGELELQFRRVK-OH [compound 206] | 1

same assay, conditions: study XR2; homologue from Poa p; score 0 to 7

Molecule | Cross-reactivity score, Poa p
GDEQKLRSAGELELQFRRVK-OH [compound 206] | 0.5

same assay, conditions: study XR2; homologue from Sor h; score 0 to 7

Molecule | Cross-reactivity score, Sor h
GDEQKLRSAGELELQFRRVK-OH [compound 206] | 0.5

same assay, conditions: study XR2; scores of all species added

Molecule | Cross-reactivity sum
GDEQKLRSAGELELQFRRVK-OH [compound 206] | 8
KEDFLGSLVKEIPPRLLYAK-OH [peptide 222] | 1

same assay, conditions: study XR2; sum divided by the number of species measured

Molecule | Cross-reactivity/species
GDEQKLRSAGELELQFRRVK-OH [compound 206] | 1
KEDFLGSLVKEIPPRLLYAK-OH [peptide 222] | 1

test system: not listed separately; test: Peptide solubility by visual inspection; type: physicochemical; details: not given
Description: Water (pH 3-5) • 2. 250 mM D-Mannitol and 25 mM sodium acetate, pH 4.5 • 3. 250 mM D-Mannitol and 25 mM sodium phosphate, pH 7.0 • 4. […] Water (pH 3-5) • 2. 250 mM D-Mannitol and 25 mM sodium acetate, pH 4.5 • 3. 250 mM D-Mannitol and 25 mM sodium phosphate, pH 7.0 • 4. […] A subset of the peptides was selected as candidate peptides for a final peptide mixture. […] During the solubility studies the peptide-containing solutions were inspected visually before and after filtration for turbidity, and presence of particles/aggregates. In addition, presence of turbidity/particles/aggregates was also detected by optical density (OD) or absorbance of filtered material, but might also be detected by size-exclusion chromatography. Furthermore, Sub-visual particles may also be detected by dynamic light scattering (DLS) analysis on filtered and non-filtered peptide containing solutions. Samples were furthermore subjected to centrifugation to allow for the possible visual inspection of pelleted material.

Molecule | solubility, 1st round of solubility screening
GDEQKLRSAGELELQFRRVK-OH [compound 206] | soluble
KEDFLGSLVKEIPPRLLYAK-OH [peptide 222] | soluble
SMGDDHFWAVRGGGGESFGI-OH [peptide 226] | soluble
VRYTTEGGTKTEAEDVIPEG-OH [peptide 212] | soluble
WLDAKSTWYGKPTGAGPKDN-OH [peptide 201] | soluble

same assay, conditions: 3 mg/mL, acetate salt, non-filtered; 250 mM D-Mannitol and 25 mM sodium acetate, pH 4.5

Molecule | Visual inspection after 60 min pH 4.5
KEDFLGSLVKEIPPRLLYAK-OH [peptide 222] | + particles,

same assay, conditions: 3 mg/mL, acetate salt, non-filtered; 250 mM D-Mannitol and 25 mM sodium acetate, pH 4.5; after centrifugation

Molecule | Visual inspection after centrifugation pH 4.5
KEDFLGSLVKEIPPRLLYAK-OH [peptide 222] | ++

same assay, conditions: 3 mg/mL, acetate salt, non-filtered; 250 mM D-Mannitol and 25 mM sodium phosphate, pH 7.0

Molecule | Visual inspection after 60 min pH 7
KEDFLGSLVKEIPPRLLYAK-OH [peptide 222] | tread +

same assay, conditions: 3 mg/mL, acetate salt, non-filtered; 250 mM D-Mannitol and 25 mM sodium phosphate, pH 7.0; after centrifugation

Molecule | Visual inspection after centrifugation pH 7
KEDFLGSLVKEIPPRLLYAK-OH [peptide 222] | ++

same assay, conditions: first solubility screening; TFA salts, 1-7 mg/mL solutions in DMSO

Molecule | Visual inspection
AEVELRQHGSEEWEPLTKKG-OH [compound 063] | +
GGASGYKDVDKPPFSGMTGS-OH [compound 006] | +
TPDKLTGPFTVRYTTEGGTK-OH [compound 024] | ++
VVAVDIKEKGKDKWIELKES-OH [compound 021] | ++

test system: not listed separately; test: Extended solubility and short term stability study (visual, U-HPLC recovery, DLS, 90LS, UV-VIS, sum of scores); details: not given
Description: For that purpose, the peptides were provided as acetate salts (produced by Innovagen® at a >10 mg scale of manufacturing). To take into account batch-to-batch variations, some peptides were tested from other batches of the manufacturer Innovagen®, as well as from another manufacturer (Almac) and from in-house production. Solubility experiments were performed on peptide in solution in concentrations ranging from 0.5 mg/mL to 3 mg/mL (dry matter)—with the following solvents: • Water • Acetate buffer, pH 4.5 (25 mM sodium acetate containing 250 mM D-Mannitol) • Phosphate buffer, pH 7.0 (25 mM sodium phosphate containing 250 mM D-Mannitol) • Glycine buffer, pH 8.5 (25 mM glycine containing 250 mM D-Mannitol)
The solubility of the peptides was initially investigated by visual inspection and U-HPLC recovery. Visual inspection included assessment of turbidity and presence of particles/aggregates of each peptide solution before and after centrifugation as well as visual inspection of pelleted material. The visual inspection were reported as “clear solution”, “very small precipitation only visible with a magnifier”, “precipitation visible/turbid solution” or “more precipitation/turbid solution”. Filtration of peptide solutions were conducted using syringe based filters containing a polyethersulfone (PES) membrane chemistry and a pore size of 0.2 μm. The amount of the peptide in the supernatant of a filtered sample was determined using U-HPLC with reverse phase chromatography and recovery were determined as described in Example 5.
Peptide solutions were investigated at a time point of 1 hour after production, but were also repeated at later time point (e.g. 24. 48 or 96 hours) to investigate the stability of the peptides.
Peptide solutions were investigated to determine the presence of turbidity/particles/aggregates by use of optical density (OD) and change in UV-VIS absorbance at a wavelength of 320 nm, of the filtrate. […] In addition or as an alternative, the amount of the peptide in the supernatant of a filtered sample was determined using U-HPLC as described above, with the exception that the recovery was determined by dividing the peak area of the filtered sample in relation to the peak area in the original solution prior to filtration. See also Example 5 for further details regarding UV-VIS, and recovery measured by U-HPLC.
The peptides were scored in relation to the outcome of the above mentioned tests: For each peptide in a given buffer and at a given concentration, a sum of test scores was calculated and the sum used to rank the peptides according to solubility: • 1. […] DLS peak 1 number 3 nm gave a score of 1, 3-10 nm gave a score of 2, 10-100 nm gave a score of 3, >100 nm gave a score of 4. • 5. 90LS at 400 nm: Intensity <450 gave a score of 1, <800 gave a score of 2, >800 gave a score of 3. • 6. UV-VIS change in absorbance at 320 nm within 24 hours: 0.01 gave a score of 1, ≤0.05 gave a score of 2, 0.0.2 gave a score of 3 and >0.2 gave a score of 4.

Molecule | solubility in aqueous solutions and short-term stability | solubility by ranking scheme based on a sum of scores | solubility in all the test samples (concentrations and pH tested), all solubility tests
AGYTPAAPAGAEPAGKATTE-OH [peptide 228] | sufficiently soluble |  | 
Ac-STGGAYESYKFIPALEAAVK-NH2 [compound 262] | sufficiently soluble | good solubility | 
Ac-STGGAYESYKFIPALEAAVK-OH [compound 260] | sufficiently soluble | good solubility | 
GDEQKLRSAGELELQFRRVK-OH [compound 206] | sufficiently soluble |  | good solubility
KEDFLGSLVKEIPPRLLYAK-OH [peptide 222] | sufficiently soluble |  | 
SMGDDHFWAVRGGGGESFGI-OH [peptide 226] | sufficiently soluble |  | 
STGGAYESYKFIPALEAAVK-NH2 [compound 261] | sufficiently soluble | good solubility | 
VRYTTEGGTKTEAEDVIPEG-OH [peptide 212] | sufficiently soluble |  | 
WLDAKSTWYGKPTGAGPKDN-OH [peptide 201] | sufficiently soluble |  | 

same assay, conditions: pH 4.5

Molecule | solubility
AGYTPAAPAGAEPAGKATTE-OH [peptide 228] | acceptable solubility
GDEQKLRSAGELELQFRRVK-OH [compound 206] | acceptable solubility
KEDFLGSLVKEIPPRLLYAK-OH [peptide 222] | acceptable solubility
SMGDDHFWAVRGGGGESFGI-OH [peptide 226] | acceptable solubility
VRYTTEGGTKTEAEDVIPEG-OH [peptide 212] | acceptable solubility
WLDAKSTWYGKPTGAGPKDN-OH [peptide 201] | acceptable solubility

biological target: 25 HLA Class II alleles (purified class II MHC molecules); test: competitive radiolabelled-peptide binding to purified HLA class II (25 alleles, binder if IC50 <300 nM); worldwide phenotypic coverage of the alleles found to bind; details: not given

Molecule | Measured binding coverage 25 alleles [%]
KYDAYVATLTEALR [peptide 137, Lol p 5b (Bio02A)] | 98
PANDKFTVFEAAFNNAIKAS [peptide 237 (Phl p 5, 166)] | 99
GFKAALAAAAGVPPADKYRT [peptide 230 (Phl p 5, 31)] | 92
KSSWGAIWRIDPKKPLK [peptide 136, Cyn d 1 (Ber02C)] | 76
YHFDLSGHAFGAMAKKGDEQ [peptide 205 (Phl p 1, 103)] | 88
EQKLIEKINAGFKAALAAAA [peptide 229 (Phl p 5, 21)] | 98
DKYRTFVATFGAASNKAFAE [peptide 231 (Phl p 5, 46)] | 99
PEVKYAVFEAALTKAIT [peptide 140, Lol p 5a (Rye09B)] | 99
SGKAFGAMAKKGQED [peptide 134, Cyn d 1 (Ber01)] | 47
KPEVKYAVFEAALTKAIT (not fully specified) [peptide 142, Lol p 5a (Rye09B1)] | 100
VATLSEALRIIAGTLEVHAV [peptide 234 (Phl p 5, 111)] | 94
FIPMKSSWGA [peptide 135, Cyn d 1 (Ber02)] | 19
EIKSTKPEASSGEPVVVHIT [peptide 203 (Phl p 1, 74)] | 71
AGELELQFRRVKSKYPEGTK [peptide 207 (Phl p 1, 127)] | 71
EAKYDAYVATLSEALRIIAG [peptide 233 (Phl p 5, 104)] | 99
KFIPTLVAAVKQAYAAKQ [peptide 138, Lol p 5b (Bio03A)] | 99
STGGAYESYKFIPALEAAVK [peptide 238 (Phl p 5, 185)] | 99
LKKAVTAMSEAEK [peptide 139, Lol p 5b (Bio04A)] | 62
KKPEVKYAVFEAALTKAIT (not fully specified) [peptide 143, Lol p 5a (Rye09B2)] | 99
TSKLDAAYKLAYKTAEGATP [peptide 232 (Phl p 5, 84)] | 93
TDDNEEPIAPYHFDLSGHAF [peptide 204 (Phl p 1, 93)] | 78
GDEQKLRSAGELELQFRRVK [peptide 206 (Phl p 1, 119)] | 70
LVKYVNGDGDVVAVDIKEKG [peptide 209 (Phl p 1, 163)] | 85
